From the supplement of paper PMC10307832

Experiments:
Assay in all cases: relative viability (nuclei count vs DMSO), 5 days (fraction); higher = more cells survive
Fedratinib + Foretinib = compound: Cc1cnc(Nc2ccc(OCCN3CCCC3)cc2)nc1Nc1cccc(S(=O)(=O)NC(C)(C)C)c1 [Fedratinib] + COc1cc2c(Oc3ccc(NC(=O)C4(C(=O)Nc5ccc(F)cc5)CC4)cc3F)ccnc2cc1OCCCN1CCOCC1 [Foretinib] (partner 0.25 µM)
Procedure, shortened: (§1)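 Each reported value is a median over duplicate plates. It expresses relative viability: treated-well nuclei count divided by vehicle-well nuclei count. Lung cancer cell lines in 1536-well plates were dosed by pin tool a day after seeding, alone with one drug or with a fixed anchor-drug dose plus five library-drug doses (not always all listed) in √10 steps, and nuclei were counted after 5 days.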

Fedratinib + Pemetrexed = compound: Cc1cnc(Nc2ccc(OCCN3CCCC3)cc2)nc1Nc1cccc(S(=O)(=O)NC(C)(C)C)c1 [Fedratinib] + Nc1nc2[nH]cc(CCc3ccc(C(=O)N[C@@H](CCC(=O)O)C(=O)O)cc3)c2c(=O)[nH]1 [Pemetrexed] (partner 0.2 µM)
Procedure, shortened: as §1

GW-2580 + Pemetrexed = compound: COC1=CC=C(C=C1)COC2=C(C=C(C=C2)CC3=CN=C(N=C3N)N)OC [GW-2580] + Nc1nc2[nH]cc(CCc3ccc(C(=O)N[C@@H](CCC(=O)O)C(=O)O)cc3)c2c(=O)[nH]1 [Pemetrexed] (partner 0.2 µM)
Procedure, shortened: as §1

Fedratinib + Trametinib = compound: Cc1cnc(Nc2ccc(OCCN3CCCC3)cc2)nc1Nc1cccc(S(=O)(=O)NC(C)(C)C)c1 [Fedratinib] + CC(=O)Nc1cccc(-n2c(=O)n(C3CC3)c(=O)c3c(Nc4ccc(I)cc4F)n(C)c(=O)c(C)c32)c1 [Trametinib] (partner 0.02 µM)
Procedure, shortened: as §1

Fedratinib + Pictilisib = compound: Cc1cnc(Nc2ccc(OCCN3CCCC3)cc2)nc1Nc1cccc(S(=O)(=O)NC(C)(C)C)c1 [Fedratinib] + CS(=O)(=O)N1CCN(Cc2cc3nc(-c4cccc5[nH]ncc45)nc(N4CCOCC4)c3s2)CC1 [Pictilisib] (partner 1 µM)
Procedure, shortened: as §1

GW-2580 + Crizotinib = compound: COC1=CC=C(C=C1)COC2=C(C=C(C=C2)CC3=CN=C(N=C3N)N)OC [GW-2580] + C[C@@H](Oc1cc(-c2cnn(C3CCNCC3)c2)cnc1N)c1c(Cl)ccc(F)c1Cl [Crizotinib] (partner 1 µM)
Procedure, shortened: as §1

NCI-H2342 showed a relative viability (Fedratinib + Foretinib; first compound 0.1 µM) of 1.05, a relative viability (Fedratinib + Foretinib; first compound 0.3162 µM) of 1.07 and a relative viability (Fedratinib + Foretinib; first compound 1 µM) of 0.989. The relative viability (Fedratinib + Pemetrexed; first compound 0.1 µM) was 0.801, the relative viability (Fedratinib + Pemetrexed; first compound 0.3162 µM) was 0.765 and the relative viability (Fedratinib + Pemetrexed; first compound 1 µM) was 0.775. The relative viability (GW-2580 + Pemetrexed; first compound 0.08 µM) was 0.705, the relative viability (GW-2580 + Pemetrexed; first compound 0.8 µM) was 0.828 and the relative viability (GW-2580 + Pemetrexed; first compound 2.53 µM) was 0.682. For the same cell line, the relative viability (GW-2580 + Pemetrexed; first compound 8 µM) was 0.733, the relative viability (Fedratinib + Trametinib; first compound 0.1 µM) was 0.858 and the relative viability (Fedratinib + Trametinib; first compound 0.3162 µM) was 1.1. For the same cell line, the relative viability (Fedratinib + Trametinib; first compound 1 µM) was 1.01.
Work on HCC-15 yielded a relative viability (Fedratinib + Foretinib; first compound 0.1 µM) of 1.02, a relative viability (Fedratinib + Foretinib; first compound 0.3162 µM) of 1.01 and a relative viability (Fedratinib + Foretinib; first compound 1 µM) of 0.86. For the same cell line, the relative viability (Fedratinib + Pictilisib; first compound 0.1 µM) was 0.581, the relative viability (Fedratinib + Pictilisib; first compound 0.3162 µM) was 0.713 and the relative viability (Fedratinib + Pictilisib; first compound 1 µM) was 0.28. For the same cell line, the relative viability (Fedratinib + Pemetrexed; first compound 0.1 µM) was 0.212, the relative viability (Fedratinib + Pemetrexed; first compound 0.3162 µM) was 0.225 and the relative viability (Fedratinib + Pemetrexed; first compound 1 µM) was 0.202. The relative viability (GW-2580 + Pemetrexed; first compound 0.08 µM) was 0.228, the relative viability (GW-2580 + Pemetrexed; first compound 0.8 µM) was 0.235 and the relative viability (GW-2580 + Pemetrexed; first compound 2.53 µM) was 0.235. The relative viability (GW-2580 + Pemetrexed; first compound 8 µM) was 0.251, the relative viability (GW-2580 + Crizotinib; first compound 0.08 µM) was 0.961 and the relative viability (GW-2580 + Crizotinib; first compound 0.8 µM) was 0.956. The relative viability (GW-2580 + Crizotinib; first compound 2.53 µM) was 0.775, the relative viability (GW-2580 + Crizotinib; first compound 8 µM) was 0.751 and the relative viability (Fedratinib + Trametinib; first compound 0.1 µM) was 0.393. For the same cell line, the relative viability (Fedratinib + Trametinib; first compound 0.3162 µM) was 0.365 and the relative viability (Fedratinib + Trametinib; first compound 1 µM) was 0.357.
In the case of A-427, the relative viability (Fedratinib + Foretinib; first compound 0.1 µM) is reported as 1.04, the relative viability (Fedratinib + Foretinib; first compound 0.3162 µM) is reported as 1 and the relative viability (Fedratinib + Foretinib; first compound 1 µM) is reported as 1.05. The relative viability (Fedratinib + Pictilisib; first compound 0.1 µM) was 0.639, the relative viability (Fedratinib + Pictilisib; first compound 0.3162 µM) was 0.758 and the relative viability (Fedratinib + Pictilisib; first compound 1 µM) was 0.329. For the same cell line, the relative viability (Fedratinib + Pemetrexed; first compound 0.1 µM) was 0.97, the relative viability (Fedratinib + Pemetrexed; first compound 0.3162 µM) was 0.848 and the relative viability (Fedratinib + Pemetrexed; first compound 1 µM) was 0.939. It also gave a relative viability (GW-2580 + Pemetrexed; first compound 0.08 µM) of 0.936, a relative viability (GW-2580 + Pemetrexed; first compound 0.8 µM) of 1.19 and a relative viability (GW-2580 + Pemetrexed; first compound 2.53 µM) of 0.842. For the same cell line, the relative viability (GW-2580 + Pemetrexed; first compound 8 µM) was 0.76, the relative viability (GW-2580 + Crizotinib; first compound 0.08 µM) was 0.926 and the relative viability (GW-2580 + Crizotinib; first compound 0.8 µM) was 1.07. It also gave a relative viability (GW-2580 + Crizotinib; first compound 2.53 µM) of 0.785, a relative viability (GW-2580 + Crizotinib; first compound 8 µM) of 0.663 and a relative viability (Fedratinib + Trametinib; first compound 0.1 µM) of 0.633. The relative viability (Fedratinib + Trametinib; first compound 0.3162 µM) was 0.649 and the relative viability (Fedratinib + Trametinib; first compound 1 µM) was 0.627.
Work on NCI-H2228 yielded a relative viability (Fedratinib + Foretinib; first compound 0.1 µM) of 0.847, a relative viability (Fedratinib + Foretinib; first compound 0.3162 µM) of 0.825 and a relative viability (Fedratinib + Foretinib; first compound 1 µM) of 0.743. For the same cell line, the relative viability (Fedratinib + Pictilisib; first compound 0.1 µM) was 0.363, the relative viability (Fedratinib + Pictilisib; first compound 0.3162 µM) was 0.432 and the relative viability (Fedratinib + Pictilisib; first compound 1 µM) was 0.127. For the same cell line, the relative viability (Fedratinib + Pemetrexed; first compound 0.1 µM) was 0.331, the relative viability (Fedratinib + Pemetrexed; first compound 0.3162 µM) was 0.284 and the relative viability (Fedratinib + Pemetrexed; first compound 1 µM) was 0.294. It also gave a relative viability (GW-2580 + Pemetrexed; first compound 0.08 µM) of 0.408, a relative viability (GW-2580 + Pemetrexed; first compound 0.8 µM) of 0.306 and a relative viability (GW-2580 + Pemetrexed; first compound 2.53 µM) of 0.338. It also gave a relative viability (GW-2580 + Pemetrexed; first compound 8 µM) of 0.327, a relative viability (GW-2580 + Crizotinib; first compound 0.08 µM) of 0.404 and a relative viability (GW-2580 + Crizotinib; first compound 0.8 µM) of 0.528. The relative viability (GW-2580 + Crizotinib; first compound 2.53 µM) was 0.408, the relative viability (GW-2580 + Crizotinib; first compound 8 µM) was 0.5 and the relative viability (Fedratinib + Trametinib; first compound 0.1 µM) was 0.629. The relative viability (Fedratinib + Trametinib; first compound 0.3162 µM) was 0.306 and the relative viability (Fedratinib + Trametinib; first compound 1 µM) was 0.404.
Cell Line NCI-H1734 has a relative viability (Fedratinib + Foretinib; first compound 0.1 µM) of 0.665, a relative viability (Fedratinib + Foretinib; first compound 0.3162 µM) of 0.921 and a relative viability (Fedratinib + Foretinib; first compound 1 µM) of 0.786. It also gave a relative viability (Fedratinib + Pictilisib; first compound 0.1 µM) of 0.443, a relative viability (Fedratinib + Pictilisib; first compound 0.3162 µM) of 0.479 and a relative viability (Fedratinib + Pictilisib; first compound 1 µM) of 0.142. For the same cell line, the relative viability (Fedratinib + Pemetrexed; first compound 0.1 µM) was 0.442, the relative viability (Fedratinib + Pemetrexed; first compound 0.3162 µM) was 0.435 and the relative viability (Fedratinib + Pemetrexed; first compound 1 µM) was 0.356. It also gave a relative viability (GW-2580 + Pemetrexed; first compound 0.08 µM) of 0.404, a relative viability (GW-2580 + Pemetrexed; first compound 0.8 µM) of 0.409 and a relative viability (GW-2580 + Pemetrexed; first compound 2.53 µM) of 0.425. It also gave a relative viability (GW-2580 + Pemetrexed; first compound 8 µM) of 0.408, a relative viability (GW-2580 + Crizotinib; first compound 0.08 µM) of 0.66 and a relative viability (GW-2580 + Crizotinib; first compound 0.8 µM) of 0.74. For the same cell line, the relative viability (GW-2580 + Crizotinib; first compound 2.53 µM) was 0.656, the relative viability (GW-2580 + Crizotinib; first compound 8 µM) was 0.509 and the relative viability (Fedratinib + Trametinib; first compound 0.1 µM) was 0.605. The relative viability (Fedratinib + Trametinib; first compound 0.3162 µM) was 0.583 and the relative viability (Fedratinib + Trametinib; first compound 1 µM) was 0.636.
Cell Line PC-14 has a relative viability (Fedratinib + Foretinib; first compound 0.1 µM) of 0.975, a relative viability (Fedratinib + Foretinib; first compound 0.3162 µM) of 1.08 and a relative viability (Fedratinib + Foretinib; first compound 1 µM) of 1. For the same cell line, the relative viability (Fedratinib + Pictilisib; first compound 0.1 µM) was 0.465, the relative viability (Fedratinib + Pictilisib; first compound 0.3162 µM) was 0.606 and the relative viability (Fedratinib + Pictilisib; first compound 1 µM) was 0.438. The relative viability (Fedratinib + Pemetrexed; first compound 0.1 µM) was 0.124, the relative viability (Fedratinib + Pemetrexed; first compound 0.3162 µM) was 0.132 and the relative viability (Fedratinib + Pemetrexed; first compound 1 µM) was 0.131. It also gave a relative viability (GW-2580 + Pemetrexed; first compound 0.08 µM) of 0.14, a relative viability (GW-2580 + Pemetrexed; first compound 0.8 µM) of 0.136 and a relative viability (GW-2580 + Pemetrexed; first compound 2.53 µM) of 0.137. For the same cell line, the relative viability (GW-2580 + Pemetrexed; first compound 8 µM) was 0.127, the relative viability (GW-2580 + Crizotinib; first compound 0.08 µM) was 0.949 and the relative viability (GW-2580 + Crizotinib; first compound 0.8 µM) was 1.04. The relative viability (GW-2580 + Crizotinib; first compound 2.53 µM) was 0.907, the relative viability (GW-2580 + Crizotinib; first compound 8 µM) was 0.899 and the relative viability (Fedratinib + Trametinib; first compound 0.1 µM) was 0.692. It also gave a relative viability (Fedratinib + Trametinib; first compound 0.3162 µM) of 0.871 and a relative viability (Fedratinib + Trametinib; first compound 1 µM) of 0.554.
With NCI-H1915 the relative viability (Fedratinib + Foretinib; first compound 0.1 µM) was 1.09, the relative viability (Fedratinib + Foretinib; first compound 0.3162 µM) was 1.08 and the relative viability (Fedratinib + Foretinib; first compound 1 µM) was 1.05. The relative viability (Fedratinib + Pictilisib; first compound 0.1 µM) was 0.927, the relative viability (Fedratinib + Pictilisib; first compound 0.3162 µM) was 0.9 and the relative viability (Fedratinib + Pictilisib; first compound 1 µM) was 0.405. The relative viability (Fedratinib + Pemetrexed; first compound 0.1 µM) was 0.599, the relative viability (Fedratinib + Pemetrexed; first compound 0.3162 µM) was 0.464 and the relative viability (Fedratinib + Pemetrexed; first compound 1 µM) was 0.425. The relative viability (GW-2580 + Pemetrexed; first compound 0.08 µM) was 0.519, the relative viability (GW-2580 + Pemetrexed; first compound 0.8 µM) was 0.53 and the relative viability (GW-2580 + Pemetrexed; first compound 2.53 µM) was 0.509. It also gave a relative viability (GW-2580 + Pemetrexed; first compound 8 µM) of 0.486, a relative viability (GW-2580 + Crizotinib; first compound 0.08 µM) of 0.896 and a relative viability (GW-2580 + Crizotinib; first compound 0.8 µM) of 1.14. It also gave a relative viability (GW-2580 + Crizotinib; first compound 2.53 µM) of 1.03, a relative viability (GW-2580 + Crizotinib; first compound 8 µM) of 0.905 and a relative viability (Fedratinib + Trametinib; first compound 0.1 µM) of 0.307. For the same cell line, the relative viability (Fedratinib + Trametinib; first compound 0.3162 µM) was 0.28 and the relative viability (Fedratinib + Trametinib; first compound 1 µM) was 0.275.
